The text below walks through data of patent US8063065B2, “Azaindazole compounds as CCR1 receptor antagonists” (Boehringer Ingelheim International GmbH, priority 2008, dated 2011).

Usually IC50 stands for the concentration at which inhibition is half-maximal.

The target of this experiment is T1, CCR1 (Homo sapiens, UniProt P32246).
T1 sequence (P32246 1-355): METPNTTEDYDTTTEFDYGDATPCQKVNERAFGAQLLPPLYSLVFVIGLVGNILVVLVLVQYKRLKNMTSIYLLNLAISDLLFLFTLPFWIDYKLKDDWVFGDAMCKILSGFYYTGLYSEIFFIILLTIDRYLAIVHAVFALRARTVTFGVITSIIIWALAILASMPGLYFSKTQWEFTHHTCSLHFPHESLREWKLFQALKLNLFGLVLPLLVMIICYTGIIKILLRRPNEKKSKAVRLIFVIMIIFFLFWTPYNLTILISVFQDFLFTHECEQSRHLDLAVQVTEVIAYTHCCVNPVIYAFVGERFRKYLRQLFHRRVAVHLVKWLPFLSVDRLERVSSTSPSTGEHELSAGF
In words: Method A: calcium flux in CCR1 transfected cells (Fluo-4 NW, FLIPR TETRA), block of the CCR1/MIP-1α interaction. Format: cell-based. As to conditions: Method A: Fluo-4 NW, MIP-1 alpha at EC80. How it is done: Compounds are assessed for the ability to block the interaction of CCR1 and MIP-1α in a functional cellular assay measuring calcium flux in CCR1 transfected cells.
Method A: Non-adherent cells purchased from Chemicon Corporation (HTS005C), stably expressing recombinant CCR1 and G-alpha-16 are grown in RPMI 1640 medium (Mediatech 10-080-CM) supplemented with 10% heat-inactivated FBS, 0.4 mg/mL Geneticin and penicillin/streptomycin. On the day of the assay, the cells are transferred to a beaker and dye-loaded in bulk using a Fluo-4 NW Calcium Assay Kit with probenecid (Invitrogen F36205) at 0.8E6 cells/mL for 1 hour at room temperature. After 1 hour, they are seeded in a 384-well tissue culture-treated plate at a density of 20,000 cells/well. Appropriately diluted test compound is added to the well to achieve a top concentration of 3,000 nM (diluted 4-fold with 10 doses total). The final concentration of DMSO is 1%. The buffer is HBSS (Invitrogen 14025) with 20 mM HEPES at pH 7.4. The cells are allowed to incubate 1 hour in the dark at room temperature. The plates are transferred to the FLIPR TETRA where MIP-1 alpha in 1% BSA is added at the EC80 final concentration. Wells+/−MIP-1 alpha containing diluted DMSO instead of compound serve as the controls. Intracellular calcium flux is recorded on the FLIPR TETRA, using excitation at 470/495 nm and emission at 515/575 nm. Data are analyzed using Activity Base software.
A general note: Calcium flux is commonly read through the fluorescence of an indicator in the cells.

As for `O=C(NCc1ccc(S(=O)(=O)N2CCC(O)C2)cc1)c1cncc2c1cnn2-c1ccc(F)cc1` (stereo not shown) [1-(4-Fluorophenyl)-1H-pyrazolo[3,4-c]pyridine-4-carboxylic acid 4-(3-hydroxy-pyrrolidine-1-sulfonyl)-benzylamide], the half-maximal inhibitory concentration (IC50) amounted to 0.9 nM.

As for `CN(C)CCN(c1ccc(CNC(=O)c2cncc3c2cnn3-c2ccc(F)cc2)cn1)S(C)(=O)=O` [1-(4-Fluorophenyl)-1H-pyrazolo[3,4-c]pyridine-4-carboxylic acid {6-[(2-dimethylamino-ethyl)-methanesulfonyl-amino]-pyridin-3-ylmethyl}-amide], the concentration for half-maximal inhibition (IC50) turned out to be 22 nM.

On to `CC(CO)NS(=O)(=O)c1ccc(CNC(=O)c2cncc3c2cnn3-c2ccc(F)cc2)cc1` (stereo not shown) [1-(4-Fluorophenyl)-1H-pyrazolo[3,4-c]pyridine-4-carboxylic acid 4-(2-hydroxy-1-methyl-ethylsulfamoyl)-benzylamide], for which the half-maximal inhibitory concentration (IC50) worked out at 2 nM.

For the compound `O=C(NCc1ccnc(Br)c1)c1cncc2c1cnn2-c1ccc(F)cc1` [1-(4-Fluorophenyl)-1H-pyrazolo[3,4-c]pyridine-4-carboxylic acid (2-bromopyridin-4-ylmethyl)-amide], the half-inhibitory concentration (IC50) is 2 nM.

For the compound `CCCC(NC(=O)c1cncc2c1cnn2-c1ccc(F)cc1)c1cncc(S(C)(=O)=O)c1` (stereo not shown) [1-(4-Fluorophenyl)-1H-pyrazolo[3,4-c]pyridine-4-carboxylic acid [1-(5-methanesulfonyl-pyridin-3-yl)-butyl]-amide], the IC50 was determined as 0.6 nM.

`CCC[C@H](NC(=O)c1cncc2c1cnn2-c1ccc(F)cc1)c1cncc(S(=O)(=O)O)c1` [5-((S)-1-{[1-(4-Fluorophenyl)-1H-pyrazolo[3,4-c]pyridine-4-carbonyl]-amino}-butyl)-pyridine-3-sulfonic acid]: the half-maximal inhibitory concentration (IC50) turned out to be 4 nM.

As to `CN(C)S(=O)(=O)N(C)c1ccc(CNC(=O)c2cncc3c2cnn3-c2ccc(F)cc2)cn1` [1-(4-Fluorophenyl)-1H-pyrazolo[3,4-c]pyridine-4-carboxylic acid [6-(dimethylamino-sulfonylmethylamino)-pyridin-3-ylmethyl]-amide], the IC50 was determined as 1 nM.

As for `C[C@@H](CO)NS(=O)(=O)c1ccc(CNC(=O)c2cncc3c2cnn3-c2ccc(F)cc2)cc1` [1-(4-Fluorophenyl)-1H-pyrazolo[3,4-c]pyridine-4-carboxylic acid 4-((S)-2-hydroxy-1-methyl-ethylsulfamoyl)-benzylamide], the half-maximal inhibitory concentration (IC50) came to 2 nM.

As to `CCCC(NC(=O)c1cncc2c1cnn2-c1ccc(F)cc1)c1cncc(S(=O)(=O)NC)c1` (stereo not shown) [1-(4-Fluorophenyl)-1H-pyrazolo[3,4-c]pyridine-4-carboxylic acid [1-(5-methylsulfamoyl-pyridin-3-yl)-butyl]-amide], the IC50 is 0.5 nM.

As to `CCCC(NC(=O)c1cncc2c1cnn2-c1ccc(Cl)cc1)c1ccc(S(C)(=O)=O)nc1` (stereo not shown) [1-(4-Chlorophenyl)-1H-pyrazolo[3,4-c]pyridine-4-carboxylic acid [1-(6-methanesulfonyl-pyridin-3-yl)-butyl]-amide], the half-maximal inhibitory concentration (IC50) is 1 nM.

With `CNS(=O)(=O)c1ccc(CNC(=O)c2cncc3c2cnn3-c2ccc(F)cc2)cc1OC` [1-(4-Fluorophenyl)-1H-pyrazolo[3,4-c]pyridine-4-carboxylic acid 3-methoxy-4-methylsulfamoyl-benzylamide], the IC50 is 3 nM.

With `CCC[C@H](NC(=O)c1cncc2c1cnn2-c1ccc(F)cc1)c1cncc(S(=O)(=O)NC)c1` [1-(4-Fluorophenyl)-1H-pyrazolo[3,4-c]pyridine-4-carboxylic acid [(S)-1-(5-methylsulfamoyl-pyridin-3-yl)-butyl]-amide], the half-inhibitory concentration (IC50) amounted to 0.2 nM.

Turning to `CC(C)(CO)NS(=O)(=O)c1ccc(CNC(=O)c2cncc3c2cnn3-c2ccc(F)cc2)cc1` [1-(4-Fluorophenyl)-1H-pyrazolo[3,4-c]pyridine-4-carboxylic acid 4-(2-hydroxy-1,1-dimethyl-ethylsulfamoyl)-benzylamide], the IC50 was 0.9 nM.

Regarding `O=C(NCc1ccc(S(=O)(=O)NC2CCOCC2)nc1)c1cncc2c1cnn2-c1ccc(F)cc1` [1-(4-Fluorophenyl)-1H-pyrazolo[3,4-c]pyridine-4-carboxylic acid [6-(tetrahydropyran-4-ylsulfamoyl)-pyridin-3-ylmethyl]-amide], the IC50 was found to be 17 nM.

Take `CCC[C@H](NC(=O)c1cncc2c1cnn2-c1ccc(F)cc1)c1cncc(S(=O)(=O)CCC(=O)OC)c1` [3-[5-((S)-1-{[1-(4-Fluorophenyl)-1H-pyrazolo[3,4-c]pyridine-4-carbonyl]-amino}-butyl)-pyridine-3-sulfonyl]-propionic acid methyl ester]: the concentration for half-maximal inhibition (IC50) came to 2 nM.

For `CN1CCN(S(=O)(=O)c2ccc(CNC(=O)c3cncc4c3cnn4-c3ccc(F)cc3)cc2)CC1` [1-(4-Fluorophenyl)-1H-pyrazolo[3,4-c]pyridine-4-carboxylic acid 4-(4-methyl-piperazine-1-sulfonyl)-benzylamide], the concentration for half-maximal inhibition (IC50) came out at 1 nM.

As for `CC[C@H](NC(=O)c1cncc2c1cnn2-c1ccc(F)cc1)c1cncc(Br)c1` [1-(4-Fluorophenyl)-1H-pyrazolo[3,4-c]pyridine-4-carboxylic acid [(S)-1-(5-bromopyridin-3-yl)-propyl]-amide], the 50% inhibitory concentration (IC50) turned out to be 0.2 nM.

On to `CNS(=O)(=O)c1ccc(CNC(=O)c2cncc3c2cnn3-c2ccc(F)cc2)cc1F` [1-(4-Fluorophenyl)-1H-pyrazolo[3,4-c]pyridine-4-carboxylic acid 3-fluoro-4-methylsulfamoyl-benzylamide], for which the IC50 is 1 nM.

As to `CN(CCO)S(=O)(=O)c1ccc(CNC(=O)c2cncc3c2cnn3-c2ccc(F)cc2)cc1` [1-(4-Fluorophenyl)-1H-pyrazolo[3,4-c]pyridine-4-carboxylic acid 4-[(2-hydroxy-ethyl)-methyl-sulfamoyl]-benzylamide], the IC50 is 1 nM.

Turning to `CS(=O)(=O)c1ccc(CNC(=O)c2cncc3c2cnn3-c2ccc(Cl)cc2)cn1` [1-(4-Chlorophenyl)-1H-pyrazolo[3,4-c]pyridine-4-carboxylic acid (6-methanesulfonyl-pyridin-3-ylmethyl)-amide], the IC50 was found to be 34 nM.

For the compound `COCCN(c1ccc(CNC(=O)c2cncc3c2cnn3-c2ccc(F)cc2)cn1)S(C)(=O)=O` [1-(4-Fluorophenyl)-1H-pyrazolo[3,4-c]pyridine-4-carboxylic acid {6-[methanesulfonyl-(2-methoxy-ethyl)-amino]-pyridin-3-ylmethyl}-amide], the IC50 was 1 nM.

Turning to `CN(C)C1CCN(S(=O)(=O)c2ccc(CNC(=O)c3cncc4c3cnn4-c3ccc(F)cc3)cc2)CC1` [1-(4-Fluorophenyl)-1H-pyrazolo[3,4-c]pyridine-4-carboxylic acid 4-(4-dimethylamino-piperidine-1-sulfonyl)-benzylamide], the IC50 was 3 nM.

Turning to `O=C(NCc1ccc(S(=O)(=O)NCCO)cc1)c1cncc2c1cnn2-c1ccc(F)cc1` [1-(4-Fluorophenyl)-1H-pyrazolo[3,4-c]pyridine-4-carboxylic acid 4-(2-hydroxy-ethylsulfamoyl)-benzylamide], the half-inhibitory concentration (IC50) was found to be 1 nM.

In the case of `O=C(NCc1ccc(CS(=O)(=O)N2CCCCC2)cc1)c1cncc2c1cnn2-c1ccc(F)cc1` [1-(4-Fluorophenyl)-1H-pyrazolo[3,4-c]pyridine-4-carboxylic acid 4-(piperidine-1-sulfonylmethyl)-benzylamide], the IC50 worked out at 6 nM.

`NC(=O)CNS(=O)(=O)c1ccc(CNC(=O)c2cncc3c2cnn3-c2ccc(F)cc2)cc1` [1-(4-Fluorophenyl)-1H-pyrazolo[3,4-c]pyridine-4-carboxylic acid 4-(carbamoylmethyl-sulfamoyl)-benzylamide]: the IC50 amounted to 22 nM.

As for `CCC(NC(=O)c1cncc2c1cnn2-c1ccc(F)cc1)c1ccc(S(C)(=O)=O)nc1` (stereo not shown) [1-(4-Fluorophenyl)-1H-pyrazolo[3,4-c]pyridine-4-carboxylic acid [1-(6-methanesulfonyl-pyridin-3-yl)-propyl]-amide], the IC50 was 3 nM.

On to `CC(O)CNS(=O)(=O)c1ccc(CNC(=O)c2cncc3c2cnn3-c2ccc(F)cc2)cc1` (stereo not shown) [1-(4-Fluorophenyl)-1H-pyrazolo[3,4-c]pyridine-4-carboxylic acid 4-(2-hydroxy-propylsulfamoyl)-benzylamide], for which the 50% inhibitory concentration (IC50) worked out at 2 nM.

With `CCC[C@H](NC(=O)c1cncc2c1cnn2-c1ccc(F)cc1)c1cncc(Br)c1` [1-(4-Fluorophenyl)-1H-pyrazolo[3,4-c]pyridine-4-carboxylic acid [(S)-1-(5-bromopyridin-3-yl)-butyl]-amide], the IC50 turned out to be 0.2 nM.
